In publication PMC8151848, “Tambjamines and Prodiginines: Biocidal Activity against Trypanosoma cruzi” (Pharmaceutics, 2021):
Converted amounts (≈) assume the structure as drawn. Where two headings read alike, the source gives them in different places.

Experiments:
Escherichia coli = details: cited from earlier work
[1] = Transmembrane anion transport (chloride efflux) in POPC vesicles; details: for anionophore activity (in words): chloride efflux
Procedure: The transmembrane anion transport activity of the compounds was explored in phospholipid (1-palmitoyl-2-oleoyl-sn-glycero-3-phosphocholine (POPC)) vesicles. Chloride efflux from chloride loaded vesicles was monitored using a chloride selective electrode. A solution of the studied compound in DMSO, usually 5 µL to avoid the influence of the organic solvent during the experiments, was added, and once the experiment was finished, a surfactant (Triton-X, 10% dispersion in water, 20 µL) was used to lyse the vesicles and release all the encapsulated chloride. This value was taken as 100% release and used as such. The experiments were repeated using different concentrations of the studied compounds and normalized chloride efflux at […] against the concentration of compound plotted. The data were then fitted with the Hill equation and an EC50 parameter, representing the concentration of compound eliciting 50% of chloride release was calculated. Assays in which the external medium was nitrate or bicarbonate were performed.

[2] = system: epimastigotes of T. cruzi (CL strain, clone B5); design: method as in PMID 31210760; details: read-out: IC50 against epimastigotes of T. cruzi (earlier study); cited from earlier work
Enterococcus faecalis = details: cited from earlier work
Pseudomonas aeruginosa = details: cited from earlier work
different parasites = system: different parasites; design: method as in PMID 32196500; details: cited from earlier work
[3] = system: epimastigotes of T. cruzi (CL strain, clone B5); test: Epimastigote susceptibility assay (monotherapy); format: cell-based, Trypanosoma cruzi; details: for IC50: Trypanosoma cruzi, CLB strain, 72 h at 28 °C, mean ± SD, read-out: IC50 (µM) in epimastigotes of T. cruzi; for activity against the extracellular and replicative forms of T. cruzi (in words): epimastigotes
Procedure: The CL-B5 strain was stably transfected with the Escherichia coli β-galactosidase gene (lacZ) and routinely maintained in exponential growth by weekly passages. Trypomastigotes of the CL-B5 strain were obtained as previously reported.
The screening assays were performed in 96-well microplates (WWR Int LLC) containing serially diluted concentrations of each compound and seeded with 2.5 × 10^5 epimastigotes/mL harvested during the exponential growth phase. Growth, medium, and drug blanks were used in each assay as controls. An internal control of the reference drug, benznidazole, was also included. After 72 h at 28 °C, 50 µL of the substrate chlorophenol red-β-D-galactopyranoside (CPRG; Roche) diluted in 0.9% Triton X-100 solution (EMD, Darmstadt, Germany) were added at a final concentration of 200 µM. Then, after 3 h at 37 °C, measurements were performed in a scanning multiwell spectrophotometer (ELISA Multiskan Reader, BioTek Instruments, Inc., Winooski, VT, USA) at 595 nm. Each concentration was tested in triplicate and the experiments were performed three times independently. The efficacy of the compounds was calculated by determining the percentage of epimastigote growth (% EG value) as follows:(1) % Epimastigote growth=(AE−AEB)/(AC−ACB)×100 where AE is the absorbance of the experimental group, AEB the absorbance of the drug blank, AC the absorbance of the control group, and ACB the absorbance of the culture medium blank. The IC50 values (the drug concentration that eliminates 50% of the parasites) were determined for each compound using the GraphPad Prism software (Version 5.0.0 for Windows, GraphPad Software, San Diego, CA, USA).

Plasmodium yoelii = system: Plasmodium yoelii; design: method as in PMID 26305125; details: murine model; cited from earlier work
[4] = POPC vesicles, ref 2 (Gianotti et al., Int. J. Mol. Sci., 2020), cited from earlier work
[5] = system: murine L-929 fibroblasts (NCTC clone 929); test: Cytotoxicity assay (resazurin) in L-929 fibroblasts; format: cell-based, mouse; details: Mus musculus, L929; read-out: IC50 (µM) L-929 cell growth inhibition
From the text: (§1) Mouse L-929 fibroblasts (NCTC clone 929, ECACC 88102702) were used for both drug toxicity and infection assays. Cell line was obtained from Dr. Concepció Soler, Dept. Pathology & Experimental therapeutics, Faculty of Medicine and Health Sciences, University of Barcelona, Spain. Human hepatocarcinoma Hep G2 cells (American Type Culture Collection (ATCC HB-8065)) were employed only in the drug toxicity assays and were obtained from Dr. Neus Agell, Cell Biology Research Group, Faculty of Medicine and Health Sciences, University of Barcelona, Spain.
(§2) Cells were seeded by trypsinization in 96-well microplates (L-929: 4 × 10^3 cells/well; Hep G2: 1.5 × 10^4 cells/well) and incubated for 24 h at 37 °C to allow cell attachment. On the following day, the medium was discarded and replaced with a fresh medium containing the different concentrations of the drugs. Hep G2 cells were treated with concentrations of 100, 10, and 1 µM of the different drugs, while L-929 cells were treated with a wider range of concentrations in order to calculate the IC50 value (the drug concentration that inhibits 50% of cell growth). Medium, growth, and drug blanks were used in each test as controls. Plates were incubated again for another 24 h. After treatment, 20 µL of resazurin diluted in 1X phosphate-buffered saline (PBS; Sigma Aldrich) was added at a final concentration of 70 µM. The plates were incubated for another 24 h, after which fluorescence was measured in a microplate reader (FLUOstar OPTIMA, BMG LABTECH GmbH, Ortenberg, Germany) at an excitation wavelength of 530 nm and an emission wavelength of 590 nm. Each concentration was tested in triplicate and the experiments were repeated three times independently. Results indicated the percentage of toxicity (% T value). (3) % Toxicity=100−(AE−AEB)/(AC−ACB)×100 where AE is the absorbance of the experimental group, AEB the absorbance of the drug blank, AC the absorbance of the untreated cells, and ACB the absorbance of the culture medium blank. For the L-929 fibroblasts, the IC50 values (the drug concentration that inhibits 50% of cell growth) were calculated for each compound using the GraphPad Prism software.

[6] = as above; format: cell-based, mouse; details: mouse, L-929 fibroblasts (NCTC clone 929); L-929, 16 µM, n = 9; read-out: % Cytotoxicity ± SD
From the text: as §1, §2

[7] = external bicarbonate, read-out: EC50 (µM) HCO3–/Cl–
[8] = external nitrate, read-out: EC50 (µM) NO3–/Cl–

## CCCCCC1=C/C(=C/c2[nH]c(-c3ccc[nH]3)cc2OC)N=C1C [Prodigiosin, prodigiosin]
Escherichia coli
  minimal inhibitory concentration (MIC): 2 µM (≈ 0.647 µg/mL)
[1]
  anionophore activity (in words): most active anionophore
[1]; [7]
  EC50: 0.06 µM
[1]; [8]
  EC50: 0.002 µM
[2]
  IC50: ≤ 800 nM
Enterococcus faecalis
  minimal inhibitory concentration (MIC): 2 µM (≈ 0.647 µg/mL)
Pseudomonas aeruginosa
  minimal inhibitory concentration (MIC): 8 µM (≈ 2.59 µg/mL)

## CC1(C)CCC(CN2CCN(c3ccc(C(=O)NS(=O)(=O)c4ccc(NCC5CCOCC5)c([N+](=O)[O-])c4)c(Oc4cnc5[nH]ccc5c4)c3)CC2)=C(c2ccc(Cl)cc2)C1 [venetoclax]
Different parasites
  effect on the viability of different parasites (in words): do not have an effect

## CC/N=C/c1[nH]c(-c2ccc[nH]2)c(CC)c1C [MM5]
[3]
  IC50: 130 ± 34.7 µM
  activity against the extracellular and replicative forms of T. cruzi (in words): did not show detectable levels of trypanocidal activity
[1]
  anionophore activity (in words): very limited activity
[1]; external bicarbonate
  EC50 (µM) HCO3–/Cl–: not active enough to calculate EC50 value
[1]; external nitrate
  EC50 (µM) NO3–/Cl–: not active enough to calculate EC50 value

## Cc1c(-c2c(-c3ccc(F)o3)sc3ncnc(O[C@H](Cc4ccccc4OCc4ccnn4CC(F)(F)F)C(=O)O)c23)ccc(OCCN2CCN(C)CC2)c1Cl [Compound S63845]
Different parasites
  effect on the viability of different parasites (in words): do not have an effect

## CCc1c(-c2ccc[nH]2)[nH]c(C=NC2CCCCCC2)c1C [KAR425]
Plasmodium yoelii
  in vivo activity against P. yoelii infection (in words): potent in vivo activity

## Cc1c(-c2ccc(N3CCc4cccc(C(=O)Nc5nc6ccccc6s5)c4C3)nc2C(=O)O)cnn1CC12CC3CC(CC(C3)C1)C2 [Compound A-1331852]
Different parasites
  effect on the viability of different parasites (in words): do not have an effect

## Cc1nn(C)c(COc2ccc(N3CCN(S(=O)(=O)N(C)C)CC3)cc2)c1-c1cccc2c(CCCOc3cccc4ccccc34)c(C(=O)O)n(CCN3CCOCC3)c12 [Compound A-1210477]
Different parasites
  effect on the viability of different parasites (in words): do not have an effect

## CC1(C)CCC(c2ccc(Cl)cc2)=C(CN2CCN(c3ccc(C(=O)NS(=O)(=O)c4ccc(N[C@H](CCN5CCOCC5)CSc5ccccc5)c(S(=O)(=O)C(F)(F)F)c4)cc3)CC2)C1 [navitoclax]
Different parasites
  effect on the viability of different parasites (in words): do not have an effect

## CCCCn1cc(-c2cc(OC)c(/C=C3\N=C(C)C=C3C)[nH]2)nn1 [EH123]
[4]; [7]
  EC50: 1.91 µM
[4]; [8]
  EC50: 0.024 µM
[3]; IC50 for L-929 fibroblasts / IC50 for T. cruzi epimastigotes
  Selectivity index (SI), Epimastigotes: 0.86
[3]
  IC50: 199 ± 49.9 µM
  activity against the extracellular and replicative forms of T. cruzi (in words): did not show detectable levels of trypanocidal activity
[5]
  IC50: 171.7 ± 0.5 µM
[6]
  cytotoxicity at 24 h, 16 µM: 3.72 ± 1.14%
